Patent US10676479B2, “Imidazolepyridine compounds and uses thereof” (Novartis AG, priority 2016, dated 2020)
pIC50: −log10 of the molar value.

Assays:
[1] = system: H3K27 methylation in G401 cell; assay: ELISA (H3K27 methylation) assay; format: cell-based; settings: Homo sapiens, G-401, ELISA Qualified assay, 48 h, read-out: (c) IC50
How it was run: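 G401 cells given 3-fold serial dilutions (eight or twelve points, top 20 μM) for 48 h. Lysate ELISA for H3K27 methylation normalized to H3 signal, % inhibition versus DMSO, IC50 from dose-response fit.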

[2] = biological target: wild type PRC2 (wtPRC2) complex (Homo sapiens (Human), UniProt O75530); assay: EED LC-MS assay; format: biochemical; settings: EED LC-MS Qualified assay; read-out: (b) IC50
Chain of wild type PRC2 (wtPRC2) complex (O75530 whole entry): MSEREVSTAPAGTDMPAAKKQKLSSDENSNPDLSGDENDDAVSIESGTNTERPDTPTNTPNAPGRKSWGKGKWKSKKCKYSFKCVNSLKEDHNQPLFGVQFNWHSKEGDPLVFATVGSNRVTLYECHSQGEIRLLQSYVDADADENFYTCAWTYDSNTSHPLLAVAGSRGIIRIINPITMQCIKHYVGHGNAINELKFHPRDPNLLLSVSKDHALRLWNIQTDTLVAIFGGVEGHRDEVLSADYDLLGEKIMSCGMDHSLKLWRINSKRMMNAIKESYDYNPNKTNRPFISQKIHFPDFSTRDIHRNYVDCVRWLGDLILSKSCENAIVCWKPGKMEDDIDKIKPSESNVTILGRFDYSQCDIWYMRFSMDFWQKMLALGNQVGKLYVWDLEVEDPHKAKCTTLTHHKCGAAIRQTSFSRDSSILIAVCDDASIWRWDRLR
Chain of wild type PRC2 (wtPRC2) complex (Q15910 whole entry partner): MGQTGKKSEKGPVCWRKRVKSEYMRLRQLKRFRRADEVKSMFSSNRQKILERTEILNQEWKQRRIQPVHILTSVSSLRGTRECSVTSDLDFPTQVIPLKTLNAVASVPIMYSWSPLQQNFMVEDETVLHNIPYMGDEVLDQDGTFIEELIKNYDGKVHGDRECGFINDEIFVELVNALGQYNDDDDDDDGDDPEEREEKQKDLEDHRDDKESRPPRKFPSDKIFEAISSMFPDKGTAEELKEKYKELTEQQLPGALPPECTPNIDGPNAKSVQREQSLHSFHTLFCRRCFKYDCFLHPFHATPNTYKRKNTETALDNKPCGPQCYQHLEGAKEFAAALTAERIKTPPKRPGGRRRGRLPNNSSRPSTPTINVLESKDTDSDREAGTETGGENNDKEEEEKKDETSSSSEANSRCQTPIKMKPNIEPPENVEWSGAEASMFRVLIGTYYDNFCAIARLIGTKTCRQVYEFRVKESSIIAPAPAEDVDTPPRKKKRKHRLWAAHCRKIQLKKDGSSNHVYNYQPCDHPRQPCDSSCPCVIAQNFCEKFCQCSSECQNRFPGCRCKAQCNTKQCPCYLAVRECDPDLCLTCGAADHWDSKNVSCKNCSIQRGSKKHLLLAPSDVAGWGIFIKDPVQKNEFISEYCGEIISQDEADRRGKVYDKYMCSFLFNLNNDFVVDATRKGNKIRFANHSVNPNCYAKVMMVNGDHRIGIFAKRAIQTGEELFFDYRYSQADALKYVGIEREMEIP
Chain of wild type PRC2 (wtPRC2) complex (Q15022 whole entry partner): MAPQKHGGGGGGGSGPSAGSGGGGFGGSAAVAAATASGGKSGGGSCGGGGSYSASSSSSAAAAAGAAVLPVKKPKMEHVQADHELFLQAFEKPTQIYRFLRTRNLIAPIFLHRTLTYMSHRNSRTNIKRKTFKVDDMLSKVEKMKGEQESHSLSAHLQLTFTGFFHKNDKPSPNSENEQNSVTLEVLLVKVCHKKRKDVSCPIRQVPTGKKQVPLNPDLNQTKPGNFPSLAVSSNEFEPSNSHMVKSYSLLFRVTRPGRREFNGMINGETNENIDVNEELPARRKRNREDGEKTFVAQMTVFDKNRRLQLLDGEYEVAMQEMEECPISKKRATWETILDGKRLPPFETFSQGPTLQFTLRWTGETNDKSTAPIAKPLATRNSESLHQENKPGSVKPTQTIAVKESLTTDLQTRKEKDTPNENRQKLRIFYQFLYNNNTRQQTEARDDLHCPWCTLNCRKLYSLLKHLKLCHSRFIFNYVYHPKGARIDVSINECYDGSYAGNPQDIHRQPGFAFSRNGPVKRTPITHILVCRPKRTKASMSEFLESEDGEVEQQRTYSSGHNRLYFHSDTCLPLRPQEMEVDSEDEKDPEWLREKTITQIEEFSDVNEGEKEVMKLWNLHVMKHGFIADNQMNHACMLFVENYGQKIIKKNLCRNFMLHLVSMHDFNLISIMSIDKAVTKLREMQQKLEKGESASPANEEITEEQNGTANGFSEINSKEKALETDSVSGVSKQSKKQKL
Procedure: EED LC-MS Assay Representative compounds of the present invention were serially and separately diluted 3-fold in DMSO to obtain a total of eight or twelve concentrations. […] A 6 μL solution of 3 μM of the peptide substrate H3K27Me0 (histone H3[21-44]-biotin) in reaction buffer was added to initiate each reaction. […] The data were then fit to a dose response equation using the program Helios to get the IC50 values of the test compound.

EED (1-441)-His protein = EED (1-441)-His protein (Homo sapiens (Human), UniProt O75530); assay: EED-H3K27Me3 peptide competition binding assay by AlphaScreen; settings: EED Alphascreen binding Qualified assay
Chain of EED (1-441)-His protein (O75530 whole entry): as the sequence (O75530 whole entry) above

Row | SMILES | pIC50 [1] | pIC50 [2] | pIC50 (EED (1-441)-His protein)
1 | N#Cc1ncn2c(NCc3c(F)ccc4c3CCO4)ncc(Br)c12 [Example 70, 8-bromo-5-(((5-fluoro-2,3-dihydrobenzofuran-4-yl)methyl)amino)imidazo[1,5-c]pyrimidine-1-carbonitrile] | 7.06 | 7.31 | 7.55
2 | N#Cc1ncn2c(NCc3c(F)ccc4c3CCO4)ncc(-c3ccc(N4CCNCC4)nc3)c12 [Example 86, 5-(((5-fluoro-2,3-dihydrobenzofuran-4-yl)methyl)amino)-8-(6-(piperazin-1-yl)pyridin-3-yl)imidazo[1,5-c]pyrimidine-1-carbonitrile] | 8.60 | 7.75 | 8.35
3 | CCOC(=O)c1ncn2c(NCc3c(F)cccc3OC)ncc(-c3cnc(C)nc3C)c12 [Example 98, ethyl 8-(2,4-dimethylpyrimidin-5-yl)-5-((2-fluoro-6-methoxybenzyl)amino)imidazo[1,5-c]pyrimidine-1-carboxylate] | 7.50 | 7.61 | 7.62
4 | N#Cc1ncn2c(NCc3c(F)ccc4c3CCO4)ncc(-c3ccc(CN4CCCC4)cc3)c12 [Example 71, 5-(((5-fluoro-2,3-dihydrobenzofuran-4-yl)methyl)amino)-8-(4-(pyrrolidin-1-ylmethyl)phenyl)imidazo[1,5-c]pyrimidine-1-carbonitrile] | 8.39 | 7.74 | 8.10
5 | N#Cc1ncn2c(NCc3c(F)ccc4c3CCO4)ncc(-c3cccnc3CO)c12 [Example 78, 5-(((5-fluoro-2,3-dihydrobenzofuran-4-yl)methyl)amino)-8-(2-(hydroxymethyl)pyridin-3-yl)imidazo[1,5-c]pyrimidine-1-carbonitrile] | 7.75 | 7.79 | 8.29
6 | CCOC(=O)c1ncn2c(NCc3c(F)ccc4c3CCO4)ncc(-c3cnc(C)nc3C)c12 [Example 94, ethyl 8-(2,4-dimethylpyrimidin-5-yl)-5-(((5-fluoro-2,3-dihydrobenzofuran-4-yl)methyl)amino)imidazo[1,5-c]pyrimidine-1-carboxylate] | 8.44 | 8.24 | 8.37
7 | Fc1ccc2c(c1CNc1ncc(-c3ccncc3)c3cncn13)CCO2 [Example 20, N-((5-fluoro-2,3-dihydrobenzofuran-4-yl)methyl)-8-(pyridin-4-yl)imidazo[1,5-c]pyrimidin-5-amine] | 7.09 | 7.36 | 7.67
8 | Fc1ccc2c(c1CNc1ncc(-c3ccc(CN4CCCC4)cc3)c3cncn13)CCO2 [Example 39, N-((5-fluoro-2,3-dihydrobenzofuran-4-yl)methyl)-8-(4-(pyrrolidin-1-ylmethyl)phenyl)imidazo[1,5-c]pyrimidin-5-amine] | 7.51 | 8.00 | 7.98
9 | CN(C)CCc1ccc(-c2cnc(NCc3c(F)ccc4c3CCO4)n3cncc23)cn1 [Example 32, 8-(6-(2-(dimethylamino)ethyl)pyridin-3-yl)-N-((5-fluoro-2,3-dihydrobenzofuran-4-yl)methyl)imidazo[1,5-c]pyrimidin-5-amine] | 7.39 | 7.61 | 8.06
10 | Cc1ncccc1-c1cnc(NCc2c(F)ccc3c2CCO3)n2cnc(C(=O)N(C)C)c12 [Example 105, 5-(((5-fluoro-2,3-dihydrobenzofuran-4-yl)methyl)amino)-N,N-dimethyl-8-(2-methylpyridin-3-yl)imidazo[1,5-c]pyrimidine-1-carboxamide] | 7.40 | 7.52 | 7.97
11 | OCCc1ccc(-c2cnc(NCc3c(F)ccc4c3CCO4)n3cncc23)cn1 [Example 34, 2-(5-(5-(((5-fluoro-2,3-dihydrobenzofuran-4-yl)methyl)amino)imidazo[1,5-c]pyrimidin-8-yl)pyridin-2-yl)ethan-1-ol] | 7.23 | 7.40 | 7.66
12 | Cc1ncccc1-c1cnc(NCc2c(F)ccc3c2CCO3)n2cnc(C(=O)NCCO)c12 [Example 107, 5-(((5-fluoro-2,3-dihydrobenzofuran-4-yl)methyl)amino)-N-(2-hydroxyethyl)-8-(2-methylpyridin-3-yl)imidazo[1,5-c]pyrimidine-1-carboxamide] | 7.59 | 8.16 | 8.11
13 | Cc1ccc(-c2cnc(NCc3c(F)ccc4c3CCO4)n3cnc(C#N)c23)c(C)n1 [Example 75, 8-(2,6-dimethylpyridin-3-yl)-5-(((5-fluoro-2,3-dihydrobenzofuran-4-yl)methyl)amino)imidazo[1,5-c]pyrimidine-1-carbonitrile] | 7.34 | 7.78 | 8.08
14 | CCOC(=O)c1ncn2c(NCc3c(F)ccc4c3CCO4)ncc(Br)c12 [Example 91, ethyl 8-bromo-5-(((5-fluoro-2,3-dihydrobenzofuran-4-yl)methyl)amino)imidazo[1,5-c]pyrimidine-1-carboxylate] | 7.49 | 8.10 | 8.07

Continued, values first:

Row | pIC50 [1] | pIC50 [2] | pIC50 (EED (1-441)-His protein) | SMILES
15 | 7.66 | 7.69 | 7.97 | Cc1ccc(-c2cnc(NCc3c(F)ccc4c3CCO4)n3cnc(C#N)c23)cn1 [Example 72, 5-(((5-fluoro-2,3-dihydrobenzofuran-4-yl)methyl)amino)-8-(6-methylpyridin-3-yl)imidazo[1,5-c]pyrimidine-1-carbonitrile]
16 | 8.62 | 7.77 | 8.16 | CS(=O)(=O)c1ncn2c(NCc3c(F)ccc4c3CCO4)ncc(-c3cccnc3)c12 [Example 102, N-((5-fluoro-2,3-dihydrobenzofuran-4-yl)methyl)-1-(methylsulfonyl)-8-(pyridin-3-yl)imidazo[1,5-c]pyrimidin-5-amine]
17 | 8.59 | 8.26 | 8.32 | CS(=O)(=O)c1ccc(-c2cnc(NCc3c(F)ccc4c3CCO4)n3cnc(-c4ncco4)c23)cc1 [Example 118, N-((5-fluoro-2,3-dihydrobenzofuran-4-yl)methyl)-8-(4-(methylsulfonyl)phenyl)-1-(oxazol-2-yl)imidazo[1,5-c]pyrimidin-5-amine]
18 | 7.49 | 7.53 | 7.81 | Cc1ncn2c(NCc3c(F)ccc4c3CCO4)ncc(-c3ccc(S(C)(=O)=O)cc3)c12 [Example 4, N-((5-fluoro-2,3-dihydrobenzofuran-4-yl)methyl)-1-methyl-8-(4-(methylsulfonyl)phenyl)imidazo[1,5-c]pyrimidin-5-amine]
19 | 8.64 | 8.11 | 8.43 | CS(=O)(=O)c1ncn2c(NCc3c(F)ccc4c3CCO4)ncc(-c3cccnc3C(F)F)c12 [Example 13, 8-(2-(Difluoromethyl)pyridin-3-yl)-N-((5-fluoro-2,3-dihydrobenzofuran-4-yl)methyl)-1-(methylsulfonyl)imidazo[1,5-c]pyrimidin-5-amine]
20 | 7.28 | 7.58 | 7.68 | Cc1cc(-c2cnc(NCc3c(F)ccc4c3CCO4)n3cncc23)ccn1 [Example 24, N-((5-fluoro-2,3-dihydrobenzofuran-4-yl)methyl)-8-(2-methylpyridin-4-yl)imidazo[1,5-c]pyrimidin-5-amine]
21 | 7.13 | 7.48 | 7.43 | CS(=O)(=O)Nc1ccc(-c2cnc(NCc3c(F)ccc4c3CCO4)n3cncc23)cc1 [Example 29, N-(4-(5-(((5-fluoro-2,3-dihydrobenzofuran-4-yl)methyl)amino)imidazo[1,5-c]pyrimidin-8-yl)phenyl)methanesulfonamide]
